Numbering of substitutions follows the chain as printed. One block for each compound: values may come before it. The source made the active and inactive calls. The rule behind the calls is not given here.
How the values were obtained:
[1] = biological target: T1, Lysosomal acid glucosylceramidase (Homo sapiens, UniProt P04062); test: Inhibition of partially purified human placental beta-glucocerebrosidase after 15 to 60 mins
T1 sequence (P04062 whole entry): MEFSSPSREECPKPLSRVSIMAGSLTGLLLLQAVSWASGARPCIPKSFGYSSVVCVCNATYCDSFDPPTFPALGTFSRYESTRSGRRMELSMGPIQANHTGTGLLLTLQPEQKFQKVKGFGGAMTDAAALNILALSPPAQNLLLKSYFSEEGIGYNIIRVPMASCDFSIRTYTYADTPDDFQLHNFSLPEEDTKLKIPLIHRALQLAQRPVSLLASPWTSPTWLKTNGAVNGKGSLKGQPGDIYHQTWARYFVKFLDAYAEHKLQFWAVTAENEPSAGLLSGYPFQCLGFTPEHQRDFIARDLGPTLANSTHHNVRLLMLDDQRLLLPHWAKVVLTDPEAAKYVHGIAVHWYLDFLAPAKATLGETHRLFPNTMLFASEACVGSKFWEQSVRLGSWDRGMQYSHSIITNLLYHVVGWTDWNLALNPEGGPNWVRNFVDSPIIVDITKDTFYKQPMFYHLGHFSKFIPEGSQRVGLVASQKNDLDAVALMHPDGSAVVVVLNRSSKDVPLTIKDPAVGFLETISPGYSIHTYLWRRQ

[2] = system: T2, Lysosomal acid glucosylceramidase (Homo sapiens), P04062 [N409S]; test: Activation of beta-glucocerebrosidase in human N370S cells assessed as increase of residual activity at 0.05 to 100 uM after 3 days; assay type: cell-based
T2 sequence (whole entry): T1 sequence (P04062 whole entry) with N409S

[3] = species on record: Rattus norvegicus; test: Inhibition of rat liver alpha-glucosidase 2 assessed as conversion of Glc2Man7GlcNAc2 to Glc1Man7GlcNAc2 at 100 uM after 1.25 hrs
[4] = system: HL-60; test: Inhibition of endoplasmic reticulum alpha-glucosidase 1 in human HL-60 cells assessed as free oligosaccharide level at 50 uM after 24 hrs; assay type: cell-based
[5] = species on record: Rattus norvegicus; test: Inhibition of rat liver alpha-glucosidase 2 assessed as conversion of Glc2Man7GlcNAc2 to Man7GlcNAc2 at 100 uM after 1.25 hrs
[6] = biological target: T3, Neutral alpha-glucosidase AB (Homo sapiens) (UniProt Q14697); test: Inhibition of endoplasmic reticulum alpha-glucosidase 2 in human HL-60 cells assessed as free oligosaccharide level at 50 uM after 24 hrs; assay type: cell-based
T3 sequence (whole entry): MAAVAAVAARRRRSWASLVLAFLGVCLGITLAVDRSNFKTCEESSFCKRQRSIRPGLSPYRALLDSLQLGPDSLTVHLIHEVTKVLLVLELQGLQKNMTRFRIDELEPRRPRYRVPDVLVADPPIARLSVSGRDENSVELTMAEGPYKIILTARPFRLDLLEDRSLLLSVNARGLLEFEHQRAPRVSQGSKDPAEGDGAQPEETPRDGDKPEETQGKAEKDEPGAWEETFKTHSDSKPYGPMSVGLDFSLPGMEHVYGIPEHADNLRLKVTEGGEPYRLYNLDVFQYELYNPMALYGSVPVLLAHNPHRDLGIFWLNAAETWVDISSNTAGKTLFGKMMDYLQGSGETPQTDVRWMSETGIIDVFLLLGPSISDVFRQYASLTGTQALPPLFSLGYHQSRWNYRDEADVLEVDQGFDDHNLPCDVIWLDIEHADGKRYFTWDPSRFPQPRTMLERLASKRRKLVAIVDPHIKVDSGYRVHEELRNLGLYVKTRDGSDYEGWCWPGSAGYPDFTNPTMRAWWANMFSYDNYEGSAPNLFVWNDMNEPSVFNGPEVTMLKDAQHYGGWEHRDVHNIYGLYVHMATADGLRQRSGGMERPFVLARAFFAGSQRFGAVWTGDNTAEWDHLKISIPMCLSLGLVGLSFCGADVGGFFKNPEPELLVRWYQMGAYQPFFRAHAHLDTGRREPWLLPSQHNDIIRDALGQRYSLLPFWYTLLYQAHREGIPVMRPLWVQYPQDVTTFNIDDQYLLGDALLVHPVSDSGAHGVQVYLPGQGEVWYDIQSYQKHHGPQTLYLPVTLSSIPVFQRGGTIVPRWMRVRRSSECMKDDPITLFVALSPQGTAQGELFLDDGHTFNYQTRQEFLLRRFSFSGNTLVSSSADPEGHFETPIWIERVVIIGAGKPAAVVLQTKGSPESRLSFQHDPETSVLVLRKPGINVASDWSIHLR

[7] = biological target: T3, Neutral alpha-glucosidase AB (Homo sapiens); test: Inhibition of endoplasmic reticulum alpha-glucosidase 2 in human HL-60 cells assessed as free oligosaccharide level at 500 uM after 24 hrs; assay type: cell-based
[8] = species on record: Rattus norvegicus; test: Inhibition of rat liver alpha-glucosidase 2 assessed as conversion of Glc2Man7GlcNAc2 to Glc1Man7GlcNAc2 at 500 uM after 1.25 hrs
[9] = system: T2, Lysosomal acid glucosylceramidase (Homo sapiens), P04062 [N409S]; test: Activation of beta-glucocerebrosidase in human N370S cells assessed as increase of residual activity at 0.05 to 100 uM after 3 days relative to control; assay type: cell-based
[10] = system: HL-60; test: Inhibition of endoplasmic reticulum alpha-glucosidase 1 in human HL-60 cells assessed as free oligosaccharide level at 500 uM after 24 hrs; assay type: cell-based
[11] = species on record: Rattus norvegicus; test: Inhibition of rat liver alpha-glucosidase 2 assessed as conversion of Glc2Man7GlcNAc2 to Man7GlcNAc2 at 500 uM after 1.25 hrs

Structure (SMILES): CCCCN1[C@@H]2CC[C@@]1(O)[C@@H](O)[C@H](O)[C@H]2CO
IC50 [1]: 100 µM
Activity [2]: inactive

IC50 [1]: 60 µM
Activity [2]: inactive
Structure (SMILES): CCCCCCCCCN1[C@@H]2CC[C@@]1(O)[C@@H](O)[C@H](O)[C@H]2CO

Structure (SMILES): O[C@@H]1[C@@H](O)[C@H](O)[C@]2(O)CC[C@H]1N2 [CALYSTEGINE B2]
IC50 [1]: 1 µM

inhibition [3]: Active
inhibition [5]: Active
inhibition [6]: Active
Structure (SMILES): CCCCN1C[C@H](O)[C@@H](O)[C@H](O)[C@H]1CO
inhibition [4]: Active

Structure (SMILES): OC[C@@H]1[C@@H](O)[C@H](O)[C@]2(O)CC[C@H]1N2 [NOEUROSTEGINE]
IC50 [1]: 0.4 µM
inhibition [7]: inactive
inhibition [8]: inactive
fold change (FC) [9]: 1.82
inhibition [10]: inactive
inhibition [11]: inactive
